# Reference: ChEMBL document CHEMBL4808247 (Bioorg Med Chem, 2021)
# Assays:
# Assay type in all cases: functional
# Escherichia coli [1] = experiment: Antibacterial activity against Escherichia coli NIHJ JC-2 strain assessed as reduction in microbial growth incubated for 16 to 20 hrs in presence of vaborbactam by broth microdilution method; conditions: time 16-20 hrs
# Escherichia coli [2] = experiment: Antibacterial activity against Escherichia coli SR34100 producing class A beta lactamase, CTX-M-15 assessed as reduction in microbial growth incubated for 16 to 20 hrs in presence of vaborbactam by broth microdilution method; conditions: time 16-20 hrs
# Enterobacter cloacae [3] = experiment: Antibacterial activity against Enterobacter cloacae IR32 producing class B beta-lactamase, NDM-1 assessed as reduction in microbial growth incubated for 16 to 20 hrs in presence of vaborbactam by broth microdilution method; conditions: time 16-20 hrs
# Enterobacter cloacae [4] = experiment: Antibacterial activity against Enterobacter cloacae SR36276 producing class C beta-lactamase, AmpC assessed as reduction in microbial growth incubated for 16 to 20 hrs in presence of vaborbactam by broth microdilution method; conditions: time 16-20 hrs
# Klebsiella pneumoniae [5] = experiment: Antibacterial activity against Klebsiella pneumoniae PLE producing class D beta-lactamase, OXA-48 assessed as reduction in microbial growth incubated for 16 to 20 hrs in presence of vaborbactam by broth microdilution method; conditions: time 16-20 hrs
# Klebsiella pneumoniae [6] = experiment: Antibacterial activity against Klebsiella pneumoniae JMI:211 producing class A beta-lactamase, KPC-2 assessed as reduction in microbial growth incubated for 16 to 20 hrs in presence of vaborbactam by broth microdilution method; conditions: time 16-20 hrs
# Enterobacter cloacae [7] = experiment: Antibacterial activity against Enterobacter cloacae IR32 producing class B beta-lactamase, NDM1 assessed as reduction in microbial growth incubated for 16 to 20 hrs by broth microdilution method; conditions: time 16-20 hrs
# Escherichia coli [8] = experiment: Antibacterial activity against Escherichia coli BL21(DE3) transfected with pET9a vector harboring class D beta lactamase, OXA-48 incubated for 16 to 20 hrs by broth microdilution method; conditions: time 16-20 hrs
# Escherichia coli [9] = experiment: Antibacterial activity against Escherichia coli BL21(DE3) transfected with pET9a empty vector incubated for 16 to 20 hrs by broth microdilution method; conditions: time 16-20 hrs
# Escherichia coli [10] = experiment: Antibacterial activity against Escherichia coli BL21(DE3) transfected with pET9a vector harboring class A beta lactamase, CTX-M-15 incubated for 16 to 20 hrs by broth microdilution method; conditions: time 16-20 hrs
# Escherichia coli [11] = experiment: Antibacterial activity against Escherichia coli BL21(DE3) transfected with pET9a vector harboring class B beta lactamase, NDM-1 incubated for 16 to 20 hrs by broth microdilution method; conditions: time 16-20 hrs
# Escherichia coli [12] = experiment: Antibacterial activity against Escherichia coli BL21(DE3) transfected with pET9a vector harboring class C beta lactamase, AmpC incubated for 16 to 20 hrs by broth microdilution method; conditions: time 16-20 hrs
# [13] = Ratio of MIC for antibacterial activity against Escherichia coli BL21(DE3) transfected with pET9a vector harboring class B beta lactamase NDM-1 to MIC for antibacterial activity against Escherichia coli BL21(DE3)
# [14] = Ratio of MIC for antibacterial activity against Escherichia coli BL21(DE3) transfected with pET9a vector harboring class C beta lactamase AmpC to MIC for antibacterial activity against Escherichia coli BL21(DE3)
# Escherichia coli [15] = experiment: Antibacterial activity against Escherichia coli NIHJ JC-2 assessed as reduction in microbial growth incubated for 16 to 20 hrs by broth microdilution method; conditions: time 16-20 hrs
# Escherichia coli [16] = experiment: Antibacterial activity against Escherichia coli SR34100 producing class A beta-lactamase, CTX-M-15 assessed as reduction in microbial growth incubated for 16 to 20 hrs by broth microdilution method; conditions: time 16-20 hrs
# Enterobacter cloacae [17] = experiment: Antibacterial activity against Enterobacter cloacae SR36276 producing class C beta-lactamase, AmpC assessed as reduction in microbial growth incubated for 16 to 20 hrs by broth microdilution method; conditions: time 16-20 hrs
# Klebsiella pneumoniae [18] = experiment: Antibacterial activity against Klebsiella pneumoniae PLE producing class D beta-lactamase, OXA-48 assessed as reduction in microbial growth incubated for 16 to 20 hrs by broth microdilution method; conditions: time 16-20 hrs
# Klebsiella pneumoniae [19] = experiment: Antibacterial activity against Klebsiella pneumoniae JMI:211 producing class A beta-lactamase, KPC-2 assessed as reduction in microbial growth incubated for 16 to 20 hrs by broth microdilution method; conditions: time 16-20 hrs
# [20] = Ratio of MIC for antibacterial activity against Escherichia coli BL21(DE3) transfected with pET9a vector harboring class A beta lactamase, CTX-M-15 to MIC for antibacterial activity against Escherichia coli BL21(DE3)
# [21] = Ratio of MIC for antibacterial activity against Escherichia coli BL21(DE3) transfected with pET9a vector harboring class D beta lactamase, OXA-48 to MIC for antibacterial activity against Escherichia coli BL21(DE3)
smiles,measurement,setting,value
C[C@@H](O)[C@H]1C(=O)N2C(C(=O)O)=C(S[C@@H]3CN[C@H](C(=O)N(C)C)C3)[C@H](C)[C@H]12 [MEROPENEM],MIC,Escherichia coli [1],< 0.031 µg/mL
same,MIC,Escherichia coli [2],< 0.031 µg/mL
same,MIC,Enterobacter cloacae [3],16 µg/mL
same,MIC,Enterobacter cloacae [4],< 0.031 µg/mL
same,MIC,Klebsiella pneumoniae [5],1 µg/mL
same,MIC,Klebsiella pneumoniae [6],< 0.031 µg/mL
CC(C)(O/N=C(\C(=O)N[C@@H]1C(=O)N2[C@@H]1SC[C@@H]1CC(=O)O[C@@]12C(=O)O)c1csc(N)n1)C(=O)O (stereo in doubt),MIC,Enterobacter cloacae [7],0.5 µg/mL
same,MIC,Escherichia coli [8],0.5 µg/mL
same,MIC,Escherichia coli [9],0.5 µg/mL
same,MIC,Escherichia coli [10],0.5 µg/mL
same,MIC,Escherichia coli [11],0.5 µg/mL
same,MIC,Escherichia coli [12],1 µg/mL
same,Ratio,[13],<2
same,Ratio,[14],<2
same,MIC,Escherichia coli [15],0.5 µg/mL
same,MIC,Escherichia coli [16],1 µg/mL
same,MIC,Enterobacter cloacae [17],16 µg/mL
same,MIC,Klebsiella pneumoniae [18],2 µg/mL
same,MIC,Klebsiella pneumoniae [19],1 µg/mL
same,Ratio,[20],<2
same,Ratio,[21],<2
